Data on 79 compounds can be found in the METLIN SMRT retention time set (Domingo-Almenara et al. 2019).

A short description of the series: gradient 5% acetonitrile 3 min, to 50% in 2 min, to 85% in 15 min, held 3 min, 100 µL/min. To be noted: column: Zorbax Extend-C18 2.1 x 50 mm; eluents: water / acetonitrile, 0.1% formic acid. In outline:
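Retention times come from adduct peaks that were picked computationally and then checked by hand. The standards, pure and pooled in mixtures of ~100 molecules, were run on a Zorbax Extend-C18 column (2.1 × 50 mm, 1.8 μm) at 100 μL/min with water and acetonitrile, each with 0.1% formic acid. Detection was by quadrupole time-of-flight mass spectrometry in positive and negative ionization mode, with a dead volume of 40 μL and a dwell volume of 900 μL.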
Take `O=C(c1ccoc1)N1CCC(c2cc(-c3ccc(F)cc3)n[nH]2)CC1`: the RP-LC retention time was 777 s.
Regarding `CN(Cc1nc2ccccc2n1CCc1ccccc1)C(=O)c1ccco1`, the RP-LC retention time stood at 706 s.
Then `COc1ccc(NC(=O)NCC23CCC=C2N(C)C(=O)CC3)cc1` (centres undefined), with 745 s; and `Cc1cc(N2CCN(C)CC2)nc2ccc(NC(=S)NCC3(c4ccccc4)CCCC3)cc12`, with 636 s.
Compound `NS(=O)(=O)c1ccc(CCNC(=O)C2CN(c3nc4c(F)cccc4s3)C2)cc1` yielded an RP-LC retention time of 660 s.
Then `CCCNC(=O)C1CCN(c2ccc(SCC(=O)Nc3ccc(Cl)cc3F)nn2)CC1`, with 688 s.
Then `NC(=O)C1CCN(C(=O)Cn2c(=O)nc(-c3ccccc3)c3cc(Cl)ccc32)CC1`, with 639 s; and `CCC(C)NC(=O)c1ccc(NC(=O)C2CC2)cc1N1CCCCCC1` (centres undefined), with 738 s.
Under `Cc1ncc2c(n1)C[C@@H]1CC[C@H]2N1C(=O)Cc1ccccc1` stands 648 s; under `CCOC(=O)c1cnc(N2CCN(Cc3ccccc3)CC2)c2ccccc12`, 755 s; under `O=C(c1cc(-c2ccco2)on1)N1CCn2c1nc1ccccc12`, 621 s.
Turning to `Cc1noc([C@@H]2CN(Cc3c(F)cccc3F)C[C@H]2CO)n1`, the RP-LC retention time is 562 s.
Compound `COC(=O)c1cc(OCC(=O)NC2CCCCC2)c2cc(OC)ccc2n1` returned an RP-LC retention time of 791 s.
Under `COC[C@@H]1CN(c2cnccn2)C[C@H]1C(=O)NCc1ccc(C)o1` stands 636 s.
Then `Cc1nn(-c2ccc(Cl)cc2)c(C)c1S(=O)(=O)N1CCC(C(=O)N2CCN(C)CC2)CC1`, with 642 s; and `Cc1c(Cl)cccc1NC(=O)N1CCCC(Cn2cnc3cccnc32)C1` (centres undefined), with 747 s; and `CC(C)NC(=O)c1ccc(-c2nnc3ccc(NC(=O)C4CCC4)cn23)cc1`, with 724 s.
Under `O=C(NCCc1ccco1)C1CCN(Cc2cc3ccccc3n2Cc2ccccc2)CC1` stands 762 s; under `Nc1ccc2c(c1)nnn2-c1ccccc1`, 708 s.
In the case of `O=C(CCc1c(-c2ccccc2)nc2ccccn12)Nc1ccc(F)cc1F`, the RP-LC retention time amounted to 666 s.
Take `COC1CN(c2cccc(F)c2)C12CCN(C(=O)NC1CCCCC1)CC2` (centres undefined): the RP-LC retention time amounted to 1030 s.
In turn, `O=C(Nc1nc(-c2ccccc2)cs1)c1cncc(Br)c1` came in with an RP-LC retention time of 998 s.
Then `CCn1cc(-c2ccc(Cl)cc2)cc1C(=O)NCc1ccccn1`, with 790 s; and `Cc1ccc(N2CCC(NC(=O)c3ccc(N(C)C)cc3)C2=O)cc1` (centres undefined), with 810 s.
Under `O=c1c(=O)n(-c2ccccc2)ccn1Cc1cccc(C(F)(F)F)c1` stands 770 s; under `C[C@@]1(C(=O)Nc2ccc(F)nc2)CCCN1c1nc(Nc2cc(C3CC3)[nH]n2)c2cccn2n1`, 946 s.
Under `COc1ccc(Nc2c(C(=O)N3CCCC(C)C3)cnc3nc(C)ccc23)cc1OC` (centres undefined) stands 610 s.
Compound `Cc1ccccc1Nc1c(-c2ccccc2)nc2ncccn12` had an RP-LC retention time of 759 s.
Then `c1ccc(-c2noc(-c3ccc(N4CCN(c5ccccn5)CC4)nc3)n2)cc1`, with 768 s; and `COc1ccc(NC(=O)N(C)CCc2noc(COc3ccc(Cl)cc3)n2)cc1`, with 1010 s.
Then `COC(=O)c1ccc2c(=O)n(-c3ccc(Cl)cc3)c(N3CCC(C(N)=O)CC3)nc2c1`, with 754 s; and `Cn1cc(S(=O)(=O)N2CCCCC2)cc1C(=O)N1CCN(c2ccc(F)cc2)CC1`, with 940 s.
Under `COc1ccc(CCNC(=O)c2ccco2)cc1OC` stands 642 s; under `O=C(Cn1cnc2nc3c(cc2c1=O)CCCC3)N1CCN(c2ccccc2)CC1`, 748 s; under `CCc1nnc(-c2ccc3ccn(CC(=O)Nc4ccc(OC)cc4)c3c2)o1`, 763 s.
Compound `Cc1nc(-c2noc(-c3ccncc3)n2)cn1CC(=O)N1CCN(c2ccccc2)CC1` yielded an RP-LC retention time of 673 s.
Under `Cc1ccc(S(=O)(=O)c2cnc(N3CCN(c4cc(Cl)ccc4C)CC3)nc2N)cc1` stands 1320 s; under `Cc1nn(C)c(=O)c2cc(S(=O)(=O)NCCC3=CCCCC3)cn12`, 966 s; under `CC1CCN(S(=O)(=O)c2ccc(-c3nnc(C(=O)NCCc4ccccc4)o3)cc2)CC1`, 1100 s.
Then `COc1cc(-c2nnc(-c3ccc(C)c(S(=O)(=O)N4CCC(C)CC4)c3)o2)cc(OC)c1OC`, with 1170 s.
In turn, `COc1cccc(NC(=O)Cn2ccc3ccc(-c4nnc(C)o4)cc32)c1` had an RP-LC retention time of 788 s.
Under `COc1ccc(-c2csc(NC(=O)c3ccc(Br)s3)n2)cc1OC` stands 990 s.
Then `COc1ccc(-c2cc(N3CCC(NC(=O)c4ccc(OC)c(OC)c4)C3)n[nH]2)cc1` (centres undefined), with 655 s.
Under `Cc1ccc2c(c1)C(=O)NC1(CCN(C(=O)Cc3ccc(Cl)cc3)CC1)N2C` stands 850 s; under `COc1cc(NC(=O)N2CCOc3ccc(Cl)cc32)cc(OC)c1OC`, 899 s; under `CCCS(=O)(=O)NCCN1C(=O)C2(CCCCC2)C1c1ccccc1` (centres undefined), 898 s.
For `COc1ccc(-n2ccn3cc(-c4ccc(F)cc4F)nc3c2=O)cc1`, the RP-LC retention time amounted to 716 s.
Regarding `Cc1ccc(C(=O)N2C[C@@H]3C[C@H]2C[C@@H]3NS(C)(=O)=O)cc1F`, the RP-LC retention time was 676 s.
Under `O=C(NCc1ccc(N2CCOCC2)cc1)c1csc(-c2ccc(N3CCCC3)nc2)n1` stands 635 s.
As to `CC(=O)c1ccc(NC(=O)Cn2c(-c3ccc(Cl)cc3)nc(C)cc2=O)cc1`, the RP-LC retention time is 1040 s.
Under `O=C(Nc1cnn(-c2ncc(N3CCCC3)cn2)c1)c1cccc(C(F)(F)F)c1` stands 917 s; under `COc1cc(NC(=O)Nc2cccc(CNC(=O)O[C@H]3CCOC3)c2)ccc1-c1cnco1`, 838 s.
Compound `CN(C)C(=O)c1ccc2oc(CN3CCN(C(=O)NC4CCCCC4)CC3)nc2c1` yielded an RP-LC retention time of 614 s.
Under `CCSc1nnc(-c2nn(C)c3c2CN(S(=O)(=O)c2ccc(C(C)C)cc2)CC3)n1CC` stands 1090 s.
In turn, `Cc1ccc(C(=O)Nc2nccnc2C(=O)N2CCC3(CC2)OCCO3)cc1` had an RP-LC retention time of 724 s.
Then `O=C(CC1CCN(C(=O)Nc2ccc(F)cc2F)CC1)N1CCCCC1`, with 722 s.
Under `COc1cc(OC)cc(-c2nc(-c3ccc4c(c3)oc(=O)n4C(C)C)no2)c1` stands 1080 s; under `CCN1c2ccccc2C(=O)NC12CCN(C(=O)Nc1ccc(OC)cc1)CC2`, 735 s.
Under `Cc1cccc(-n2c(=O)c3sccc3n(Cc3nc(-c4ccccc4Cl)no3)c2=O)c1` stands 1010 s.
For the compound `CCOc1ccc(N2C(=O)C3N=NN(Cc4nc(-c5ccccc5C)no4)C3C2=O)cc1` (centres undefined), the RP-LC retention time turned out to be 1040 s.
Then `CC(C)(C)c1csc(-c2csc(S(=O)(=O)NCc3ccccc3Cl)c2)n1`, with 1300 s; and `O=C(CN1CCN(Cc2cccc(Cl)c2)C1=O)NCc1ccncc1`, with 599 s.
Consider `Cc1cc(Cl)ccc1NC(=O)C1CCCN(c2ncnc3c2nc2n3CCCCC2)C1` (centres undefined), for which the RP-LC retention time was determined as 879 s.
Under `O=C(Nc1nc2ccccc2n1CCN1CCOCC1)c1cccc([N+](=O)[O-])c1` stands 581 s; under `COc1ccc(NC(=O)Cn2nc3n(c2=O)CCCC3)cc1Cl`, 674 s.
Take `COc1ccc(CC(=O)Nc2ccc3c(c2)Sc2ncccc2C(=O)N3C)cc1`: the RP-LC retention time is 748 s.
Then `O=C(NC(=O)c1ccccc1)OCCN1CCN(c2ncc(C(F)(F)F)cc2Cl)CC1`, with 692 s; and `CCCS(=O)(=O)N1CCC2(CC1)CN(Cc1ccc(OC)cc1)C2=O`, with 787 s; and `CCOc1ccc(NC(=O)C2(C)Oc3cccnc3NC2=O)cc1` (centres undefined), with 740 s.
Under `CCC(=O)Nc1c(C)noc1/C=C/c1ccc(S(=O)(=O)N2CCN(c3ccccn3)CC2)s1` stands 677 s; under `Cn1cnnc1CC1CCN(C(=O)Nc2ccccc2)C1` (centres undefined), 587 s.
As to `CCOC(=O)CN1CCC(c2nnc(-c3ccc(F)cc3)o2)CC1`, the RP-LC retention time is 555 s.
Turning to `NC(=O)Cn1c(Cc2ccccc2Cl)nc2ccccc21`, the RP-LC retention time worked out at 591 s.
For `COCc1nc(C2CCN(S(=O)(=O)c3ccc4c(c3)OCCO4)C2)no1` (centres undefined), the RP-LC retention time was determined as 779 s.
Then `OC(CNCc1ccc(-c2ccc(Br)cc2)o1)c1ccccc1` (centres undefined), with 755 s; and `CN(C)C(=O)c1ccc2c(c1)N(CC(=O)NCCN1CCCCCC1)C(=O)C1CCCCN21` (centres undefined), with 615 s; and `Cc1ccc(S(=O)(=O)N2CCC3(CCC(CN4CCN(C)CC4)O3)CC2)cc1Cl` (centres undefined), with 655 s.
Then `CCc1noc(-c2nnn3c2COC(c2ccc(F)cc2)C3)n1` (centres undefined), with 960 s; and `Cc1cc(C(=O)Nc2ccc(C)c(C)c2)n(-c2ccccc2)n1`, with 961 s.
